Active and inactive are the calls of the source. How the calls were made is not given here.
System: CCRIS mutagenicity, Ames/micronucleus/aberration tests
Assay: CCRIS mutagenicity studies

CC(=O)Nc1ccc(C(=O)CCl)cc1
mutagenic call (Test System: AMES SALMONELLA TYPHIMURIUM, Strain/Indicator: TA98, Metabolic Activation: HAMSTER, LIVER, S-9, AROCLOR 1254, Method: STANDARD PLATE): active; positive | mutagenic call (Test System: AMES SALMONELLA TYPHIMURIUM, Strain/Indicator: TA98, Metabolic Activation: HAMSTER, LIVER, S-9, Method: STANDARD PLATE): active; positive | mutagenic call (Test System: AMES SALMONELLA TYPHIMURIUM, Strain/Indicator: TA98, Metabolic Activation: MOUSE, LIVER, S-9, Method: STANDARD PLATE): inactive; negative | mutagenic call (Test System: AMES SALMONELLA TYPHIMURIUM, Strain/Indicator: TA98, Metabolic Activation: NONE): active; positive | mutagenic call (Test System: AMES SALMONELLA TYPHIMURIUM, Strain/Indicator: TA98, Metabolic Activation: RAT, LIVER, S-9, AROCLOR 1254, Method: STANDARD PLATE): inactive; negative | mutagenic call (Test System: AMES SALMONELLA TYPHIMURIUM, Strain/Indicator: TA98, Metabolic Activation: RAT, LIVER, S-9, PHENOBARBITONE AND BETA-NAPHTHOFLAVONE): active; positive | mutagenic call (Test System: AMES SALMONELLA TYPHIMURIUM, Strain/Indicator: TA98, Metabolic Activation: RAT, LIVER, S-9, Method: STANDARD PLATE): inactive; negative | mutagenic call (Test System: AMES SALMONELLA TYPHIMURIUM, Strain/Indicator: TA100, Metabolic Activation: HAMSTER, LIVER, S-9, AROCLOR 1254, Method: STANDARD PLATE): inactive; negative | mutagenic call (Test System: AMES SALMONELLA TYPHIMURIUM, Strain/Indicator: TA100, Metabolic Activation: HAMSTER, LIVER, S-9, Method: STANDARD PLATE): inactive; negative | mutagenic call (Test System: AMES SALMONELLA TYPHIMURIUM, Strain/Indicator: TA100, Metabolic Activation: MOUSE, LIVER, S-9, AROCLOR 1254, Method: STANDARD PLATE): inactive; negative | mutagenic call (Test System: AMES SALMONELLA TYPHIMURIUM, Strain/Indicator: TA100, Metabolic Activation: MOUSE, LIVER, S-9, Method: STANDARD PLATE): inactive; negative | mutagenic call (Test System: AMES SALMONELLA TYPHIMURIUM, Strain/Indicator: TA100, Metabolic Activation: NONE): inactive; negative | mutagenic call (Test System: AMES SALMONELLA TYPHIMURIUM, Strain/Indicator: TA100, Metabolic Activation: NONE, Method: STANDARD PLATE): inactive; negative | mutagenic call (Test System: AMES SALMONELLA TYPHIMURIUM, Strain/Indicator: TA100, Metabolic Activation: RAT, LIVER, S-9, AROCLOR 1254, Method: STANDARD PLATE): inactive; negative | mutagenic call (Test System: AMES SALMONELLA TYPHIMURIUM, Strain/Indicator: TA100, Metabolic Activation: RAT, LIVER, S-9, PHENOBARBITONE AND BETA-NAPHTHOFLAVONE): inactive; negative | mutagenic call (Test System: AMES SALMONELLA TYPHIMURIUM, Strain/Indicator: TA100, Metabolic Activation: RAT, LIVER, S-9, Method: STANDARD PLATE): inactive; negative | mutagenic call (Test System: AMES SALMONELLA TYPHIMURIUM, Strain/Indicator: TA1535, Metabolic Activation: HAMSTER, LIVER, S-9, AROCLOR 1254, Method: STANDARD PLATE): inactive; negative | mutagenic call (Test System: AMES SALMONELLA TYPHIMURIUM, Strain/Indicator: TA1535, Metabolic Activation: HAMSTER, LIVER, S-9, Method: STANDARD PLATE): inactive; negative | mutagenic call (Test System: AMES SALMONELLA TYPHIMURIUM, Strain/Indicator: TA1535, Metabolic Activation: MOUSE, LIVER, S-9, AROCLOR 1254, Method: STANDARD PLATE): inactive; negative | mutagenic call (Test System: AMES SALMONELLA TYPHIMURIUM, Strain/Indicator: TA1535, Metabolic Activation: MOUSE, LIVER, S-9, Method: STANDARD PLATE): inactive; negative | mutagenic call (Test System: AMES SALMONELLA TYPHIMURIUM, Strain/Indicator: TA1535, Metabolic Activation: NONE, Method: STANDARD PLATE): inactive; negative | mutagenic call (Test System: AMES SALMONELLA TYPHIMURIUM, Strain/Indicator: TA1535, Metabolic Activation: RAT, LIVER, S-9, AROCLOR 1254, Method: STANDARD PLATE): inactive; negative | mutagenic call (Test System: AMES SALMONELLA TYPHIMURIUM, Strain/Indicator: TA1535, Metabolic Activation: RAT, LIVER, S-9, Method: STANDARD PLATE): inactive; negative | mutagenic call (Test System: AMES SALMONELLA TYPHIMURIUM, Strain/Indicator: TA1537, Metabolic Activation: HAMSTER, LIVER, S-9, Method: STANDARD PLATE): inactive; negative | mutagenic call (Test System: AMES SALMONELLA TYPHIMURIUM, Strain/Indicator: TA1537, Metabolic Activation: MOUSE, LIVER, S-9, Method: STANDARD PLATE): inactive; negative | mutagenic call (Test System: AMES SALMONELLA TYPHIMURIUM, Strain/Indicator: TA1538, Metabolic Activation: NONE): inactive; negative | mutagenic call (Test System: AMES SALMONELLA TYPHIMURIUM, Strain/Indicator: TA1538, Metabolic Activation: RAT, LIVER, S-9, AROCLOR 1254, Method: STANDARD PLATE): inactive; negative | mutagenic call (Test System: AMES SALMONELLA TYPHIMURIUM, Strain/Indicator: TA1538, Metabolic Activation: RAT, LIVER, S-9, PHENOBARBITONE AND BETA-NAPHTHOFLAVONE): active; positive | mutagenic call (Test System: AMES SALMONELLA TYPHIMURIUM, Strain/Indicator: TA1538, Metabolic Activation: RAT, LIVER, S-9, Method: STANDARD PLATE): inactive; negative | mutagenic call (Test System: E. COLI, Strain/Indicator: WP2 UVRA, Metabolic Activation: HAMSTER, LIVER, S-9, AROCLOR 1254, Method: STANDARD PLATE): inactive; negative | mutagenic call (Test System: E. COLI, Strain/Indicator: WP2 UVRA, Metabolic Activation: HAMSTER, LIVER, S-9, Method: STANDARD PLATE): inactive; negative | mutagenic call (Test System: E. COLI, Strain/Indicator: WP2 UVRA, Metabolic Activation: MOUSE, LIVER, S-9, Method: STANDARD PLATE): inactive; negative | mutagenic call (Test System: E. COLI, Strain/Indicator: WP2 UVRA, Metabolic Activation: NONE, Method: STANDARD PLATE): inactive; negative | mutagenic call (Test System: E. COLI, Strain/Indicator: WP2 UVRA, Metabolic Activation: RAT, LIVER, S-9, AROCLOR 1254, Method: STANDARD PLATE): inactive; negative | mutagenic call (Test System: E. COLI, Strain/Indicator: WP2 UVRA, Metabolic Activation: RAT, LIVER, S-9, Method: STANDARD PLATE): inactive; negative

Cc1ccc(N=Nc2c(O)ccc3ccccc23)c([N+](=O)[O-])c1
mutagenic call (Test System: AMES SALMONELLA TYPHIMURIUM, Strain/Indicator: TA98, Metabolic Activation: HAMSTER, LIVER, S-9, AROCLOR 1254 (10%), Method: PREINCUBATION): active; positive | mutagenic call (Test System: AMES SALMONELLA TYPHIMURIUM, Strain/Indicator: TA98, Metabolic Activation: NONE, Method: PREINCUBATION): inactive; negative | mutagenic call (Test System: AMES SALMONELLA TYPHIMURIUM, Strain/Indicator: TA98, Metabolic Activation: RAT, LIVER, S-9, AROCLOR 1254 (10%), Method: PREINCUBATION): inactive; negative | mutagenic call (Test System: AMES SALMONELLA TYPHIMURIUM, Strain/Indicator: TA100, Metabolic Activation: HAMSTER, LIVER, S-9, AROCLOR 1254 (10%), Method: PREINCUBATION): active; positive | mutagenic call (Test System: AMES SALMONELLA TYPHIMURIUM, Strain/Indicator: TA100, Metabolic Activation: NONE, Method: PREINCUBATION): inactive; negative | mutagenic call (Test System: AMES SALMONELLA TYPHIMURIUM, Strain/Indicator: TA1535, Metabolic Activation: HAMSTER, LIVER, S-9, AROCLOR 1254 (10%), Method: PREINCUBATION): inactive; negative | mutagenic call (Test System: AMES SALMONELLA TYPHIMURIUM, Strain/Indicator: TA1535, Metabolic Activation: NONE, Method: PREINCUBATION): inactive; negative | mutagenic call (Test System: AMES SALMONELLA TYPHIMURIUM, Strain/Indicator: TA1535, Metabolic Activation: RAT, LIVER, S-9, AROCLOR 1254 (10%), Method: PREINCUBATION): inactive; negative | mutagenic call (Test System: AMES SALMONELLA TYPHIMURIUM, Strain/Indicator: TA1537, Metabolic Activation: HAMSTER, LIVER, S-9, AROCLOR 1254 (10%), Method: PREINCUBATION): inactive; negative | mutagenic call (Test System: AMES SALMONELLA TYPHIMURIUM, Strain/Indicator: TA1537, Metabolic Activation: NONE, Method: PREINCUBATION): inactive; negative | mutagenic call (Test System: AMES SALMONELLA TYPHIMURIUM, Strain/Indicator: TA1537, Metabolic Activation: RAT, LIVER, S-9, AROCLOR 1254 (10%), Method: PREINCUBATION): inactive; negative

— PubChem BioAssay AID1259407 (Chemical Carcinogenesis Research Information System (CCRIS), 2018)
